Results reported in ChEMBL document CHEMBL1201862, “PubChem BioAssay data set” (2004).
The source made the active and inactive calls.

Experiments:
DNA topoisomerase = DNA topoisomerase (Yersinia pestis, UniProt A0A2S9PM60); test: Y. pestis Topo-I inhibitors, cleavage product readout, dose response, biochemical, cherry-pick (AID 588525)
[1] = molecular target: Disintegrin and metalloproteinase domain-containing protein 17 (Homo sapiens, UniProt P78536); test: ADAM17 protease inhibitors, dose response, counter-screen for ADAM10 exosite inhibitor project, biochemical, quenched FRET substrate (AID 743253)
[2] = ADAM10 inhibitors, peptide cleavage, dose response, biochemical, QFRET (AID 743254);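 also: ADAM10 enzyme with the DM2 quenched FRET peptide as substrate; EDANS fluorescence gain as the protease cuts the substrate; inhibitor potency against ADAM10 proteolytic activity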
[3] = molecular target: T1, Sentrin-specific protease 6 (Homo sapiens, UniProt Q9GZR1); test: SAR Analysis of small molecule inhibitors of Sentrin-specific protease 6 (SENP6) using a Luminescent assay. [Related pubchem assays (depositor defined):AID2582, AID2599]; format: functional
T1 sequence (Q9GZR1 whole entry): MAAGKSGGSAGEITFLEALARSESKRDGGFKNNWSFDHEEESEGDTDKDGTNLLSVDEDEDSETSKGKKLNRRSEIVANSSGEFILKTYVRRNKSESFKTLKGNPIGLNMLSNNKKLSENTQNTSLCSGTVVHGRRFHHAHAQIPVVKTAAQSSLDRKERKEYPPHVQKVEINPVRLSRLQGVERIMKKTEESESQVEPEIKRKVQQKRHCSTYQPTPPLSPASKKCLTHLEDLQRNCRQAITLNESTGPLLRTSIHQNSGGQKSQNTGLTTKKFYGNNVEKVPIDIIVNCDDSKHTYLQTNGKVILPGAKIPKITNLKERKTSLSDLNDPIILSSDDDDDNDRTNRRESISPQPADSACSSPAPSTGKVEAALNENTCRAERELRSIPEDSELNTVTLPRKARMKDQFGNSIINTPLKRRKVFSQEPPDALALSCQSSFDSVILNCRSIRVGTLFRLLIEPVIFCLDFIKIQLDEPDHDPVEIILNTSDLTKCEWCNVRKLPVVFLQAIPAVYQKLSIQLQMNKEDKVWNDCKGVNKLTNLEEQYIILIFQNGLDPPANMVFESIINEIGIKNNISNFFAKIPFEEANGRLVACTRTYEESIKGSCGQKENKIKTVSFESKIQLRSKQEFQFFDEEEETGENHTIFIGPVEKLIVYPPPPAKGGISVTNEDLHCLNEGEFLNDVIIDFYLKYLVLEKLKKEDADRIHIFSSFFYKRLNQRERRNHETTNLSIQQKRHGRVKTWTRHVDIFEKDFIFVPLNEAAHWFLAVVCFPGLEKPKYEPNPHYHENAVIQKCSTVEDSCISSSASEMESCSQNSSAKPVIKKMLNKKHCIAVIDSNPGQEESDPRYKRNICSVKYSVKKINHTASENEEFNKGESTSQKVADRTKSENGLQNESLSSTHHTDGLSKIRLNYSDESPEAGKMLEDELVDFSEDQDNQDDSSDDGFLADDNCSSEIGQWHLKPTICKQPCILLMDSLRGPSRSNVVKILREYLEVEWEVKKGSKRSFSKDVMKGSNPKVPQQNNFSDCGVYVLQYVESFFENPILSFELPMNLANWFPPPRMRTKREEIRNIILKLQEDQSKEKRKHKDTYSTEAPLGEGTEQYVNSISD

[4] = molecular target: T2, Sentrin-specific protease 7 (Homo sapiens, UniProt Q9BQF6); test: SENP7 protease inhibitors, SAR follow-up, biochemical, luminescence, set 2 (AID 588600); format: functional
T2 sequence (Q9BQF6 whole entry): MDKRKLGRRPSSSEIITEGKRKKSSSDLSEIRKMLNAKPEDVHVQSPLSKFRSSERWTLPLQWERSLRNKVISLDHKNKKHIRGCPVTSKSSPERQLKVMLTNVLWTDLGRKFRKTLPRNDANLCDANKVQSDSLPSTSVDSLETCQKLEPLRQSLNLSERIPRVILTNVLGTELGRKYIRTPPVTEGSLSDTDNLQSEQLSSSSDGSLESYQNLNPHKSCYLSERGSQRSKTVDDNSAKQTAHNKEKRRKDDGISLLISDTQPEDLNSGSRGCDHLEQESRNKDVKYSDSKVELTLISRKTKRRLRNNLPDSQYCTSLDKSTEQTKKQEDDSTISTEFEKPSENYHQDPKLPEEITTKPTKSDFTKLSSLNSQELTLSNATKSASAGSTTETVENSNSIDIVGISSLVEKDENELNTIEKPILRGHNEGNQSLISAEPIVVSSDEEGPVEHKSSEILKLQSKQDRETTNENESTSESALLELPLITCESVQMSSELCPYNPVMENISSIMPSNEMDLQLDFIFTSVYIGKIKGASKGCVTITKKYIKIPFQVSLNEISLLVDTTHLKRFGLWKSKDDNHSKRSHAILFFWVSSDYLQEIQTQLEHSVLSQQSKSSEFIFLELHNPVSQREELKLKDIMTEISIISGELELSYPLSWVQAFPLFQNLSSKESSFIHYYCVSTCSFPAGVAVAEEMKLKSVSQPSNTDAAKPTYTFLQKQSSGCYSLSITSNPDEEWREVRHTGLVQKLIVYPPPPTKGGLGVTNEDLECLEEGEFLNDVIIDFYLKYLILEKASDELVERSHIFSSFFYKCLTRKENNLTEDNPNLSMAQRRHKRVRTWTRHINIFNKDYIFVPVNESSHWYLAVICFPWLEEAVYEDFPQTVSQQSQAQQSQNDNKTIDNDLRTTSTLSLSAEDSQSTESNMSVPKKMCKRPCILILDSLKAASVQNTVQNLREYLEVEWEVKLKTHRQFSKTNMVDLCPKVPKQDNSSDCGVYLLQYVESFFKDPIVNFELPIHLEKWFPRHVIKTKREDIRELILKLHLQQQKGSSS

Caspase-3 [5] = molecular target: T3, Caspase-3 (Homo sapiens, UniProt P42574); test: caspase-3 inhibitors as off-family protease, SAR follow-up, selectivity assay for SENP protease inhibitor project, biochemical, luminescence, set 2 (AID 588599); format: functional
T3 sequence (P42574 whole entry): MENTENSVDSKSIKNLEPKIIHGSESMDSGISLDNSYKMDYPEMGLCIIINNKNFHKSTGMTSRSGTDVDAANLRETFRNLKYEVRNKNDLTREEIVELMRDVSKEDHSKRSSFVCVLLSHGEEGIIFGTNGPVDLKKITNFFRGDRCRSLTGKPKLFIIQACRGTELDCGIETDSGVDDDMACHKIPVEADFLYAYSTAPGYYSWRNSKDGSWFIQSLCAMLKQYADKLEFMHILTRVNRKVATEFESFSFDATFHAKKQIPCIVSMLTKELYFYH

Caspase-3 [6] = molecular target: T3, Caspase-3; test: SAR Analysis of small molecule inhibitors of Sentrin-specific proteases (SENPs) using a Caspase-3 Selectivity assay. [Related pubchem assays (depositor defined):AID2540, AID2599, AID434973, AID489001]; format: functional
[7] = molecular target: T2, Sentrin-specific protease 7; test: SENP7 protease inhibitors, SAR follow-up, biochemical, luminescence (AID 504497); format: functional
[8] = molecular target: T4, Sentrin-specific protease 8 (Homo sapiens, UniProt Q96LD8); test: SENP8 protease inhibitors, SAR follow-up, biochemical, luminescence, set 2 (AID 588601); format: functional
T4 sequence (Q96LD8 whole entry): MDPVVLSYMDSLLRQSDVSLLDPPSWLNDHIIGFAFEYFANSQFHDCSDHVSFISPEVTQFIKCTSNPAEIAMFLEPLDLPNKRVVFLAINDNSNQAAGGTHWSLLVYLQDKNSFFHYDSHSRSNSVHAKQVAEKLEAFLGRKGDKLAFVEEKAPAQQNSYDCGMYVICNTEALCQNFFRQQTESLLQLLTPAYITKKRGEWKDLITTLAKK

[9] = molecular target: T1, Sentrin-specific protease 6; test: SENP6 protease inhibitors, SAR follow-up, biochemical, luminescence, set 2 (AID 588598); format: functional
[10] = molecular target: T4, Sentrin-specific protease 8; test: SENP8 protease inhibitors, SAR follow-up, biochemical, luminescence (AID 504501); format: functional
Hexokinase HKDC1 = molecular target: T5, Hexokinase HKDC1 (Homo sapiens, UniProt Q2TB90); test: SAR analysis of small molecule inhibitors of hexokinase domain containing I (HKDC1). [Related pubchem assays (depositor defined):AID493160, AID493190]; format: functional
T5 sequence (Q2TB90 whole entry): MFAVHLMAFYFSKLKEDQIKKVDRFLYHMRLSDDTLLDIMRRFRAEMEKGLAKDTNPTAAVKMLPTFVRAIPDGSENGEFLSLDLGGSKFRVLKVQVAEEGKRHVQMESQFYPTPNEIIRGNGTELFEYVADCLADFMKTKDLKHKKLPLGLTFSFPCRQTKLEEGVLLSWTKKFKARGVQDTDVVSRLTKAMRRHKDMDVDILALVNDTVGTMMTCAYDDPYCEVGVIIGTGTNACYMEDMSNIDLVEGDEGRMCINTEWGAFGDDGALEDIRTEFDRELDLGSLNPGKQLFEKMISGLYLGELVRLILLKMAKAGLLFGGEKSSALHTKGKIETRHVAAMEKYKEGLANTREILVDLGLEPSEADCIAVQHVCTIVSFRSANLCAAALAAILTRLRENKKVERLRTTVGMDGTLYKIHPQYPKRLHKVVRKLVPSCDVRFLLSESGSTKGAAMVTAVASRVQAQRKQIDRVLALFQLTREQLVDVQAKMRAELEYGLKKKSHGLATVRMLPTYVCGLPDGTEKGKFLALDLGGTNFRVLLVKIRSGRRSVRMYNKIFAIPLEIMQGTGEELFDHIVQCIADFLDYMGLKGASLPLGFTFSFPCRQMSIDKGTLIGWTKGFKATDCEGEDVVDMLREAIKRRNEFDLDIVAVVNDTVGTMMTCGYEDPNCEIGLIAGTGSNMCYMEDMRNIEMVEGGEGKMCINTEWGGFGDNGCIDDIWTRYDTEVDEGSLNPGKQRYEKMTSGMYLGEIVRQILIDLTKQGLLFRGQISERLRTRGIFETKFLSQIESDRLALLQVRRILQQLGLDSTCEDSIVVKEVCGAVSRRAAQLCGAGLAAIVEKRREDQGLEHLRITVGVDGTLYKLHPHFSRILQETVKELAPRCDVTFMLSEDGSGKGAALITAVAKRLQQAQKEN

Hexokinase-1 = molecular target: T6, Hexokinase-1 (Homo sapiens, UniProt P19367); test: SAR analysis of small molecule inhibitors of hexokinase domain containing I (HKDC1) in the hexokinase 1 selectivity assay. [Related pubchem assays (depositor defined):AID493160, AID493190]; format: functional
T6 sequence (P19367 whole entry): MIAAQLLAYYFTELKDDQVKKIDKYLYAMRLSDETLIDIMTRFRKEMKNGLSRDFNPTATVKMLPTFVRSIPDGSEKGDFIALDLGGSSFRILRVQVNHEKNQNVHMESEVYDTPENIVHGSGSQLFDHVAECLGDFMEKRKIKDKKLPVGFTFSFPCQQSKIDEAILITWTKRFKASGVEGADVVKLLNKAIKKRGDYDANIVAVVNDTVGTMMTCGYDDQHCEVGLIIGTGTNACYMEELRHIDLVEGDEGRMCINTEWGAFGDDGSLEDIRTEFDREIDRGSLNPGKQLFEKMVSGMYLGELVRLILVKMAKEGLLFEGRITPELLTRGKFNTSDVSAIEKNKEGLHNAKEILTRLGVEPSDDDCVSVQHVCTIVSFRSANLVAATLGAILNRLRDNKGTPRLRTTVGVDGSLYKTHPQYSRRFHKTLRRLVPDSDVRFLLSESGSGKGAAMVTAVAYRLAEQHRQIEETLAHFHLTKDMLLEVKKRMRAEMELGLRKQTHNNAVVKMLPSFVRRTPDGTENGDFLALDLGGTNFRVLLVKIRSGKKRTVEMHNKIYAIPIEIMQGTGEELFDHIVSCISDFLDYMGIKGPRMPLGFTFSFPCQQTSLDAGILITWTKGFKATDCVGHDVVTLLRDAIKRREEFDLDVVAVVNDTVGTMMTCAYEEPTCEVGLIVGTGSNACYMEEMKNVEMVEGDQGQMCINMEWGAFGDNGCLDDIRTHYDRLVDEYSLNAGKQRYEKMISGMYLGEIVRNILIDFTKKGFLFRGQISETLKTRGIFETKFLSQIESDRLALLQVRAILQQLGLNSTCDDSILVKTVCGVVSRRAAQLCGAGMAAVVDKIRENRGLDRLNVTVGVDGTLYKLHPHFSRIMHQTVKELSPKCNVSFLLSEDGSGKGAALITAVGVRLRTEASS

Jurkat = test: SAR Analysis of small molecule inhibitors of […] specific antigen receptor-induced NF-kB activation in a Jurkat cell line using a luminescence assay - Set 3. [Related pubchem assays (depositor defined):AID435022, AID435025, AID465]; format: functional, cell-based; details: Homo sapiens
HEK293 [11] = test: cytotoxicity in HEK293T NF-kB-Luc cells, SAR follow-up, cytotoxicity control for NF-kB activator project, cell-based, resazurin fluorescence (AID 493251); format: functional; details: Homo sapiens
HEK293 [12] = test: SAR Analysis of small molecule inhibitors of B-cell specific antigen receptor-induced NF-kB activation in a HEK-293T cell line using a luminescence assay - Set 2. [Related pubchem assays (depositor defined):AID435022, AID435025, AID489021]; format: functional, cell-based; details: Homo sapiens

DNA topoisomerase, sequence (A0A2S9PM60 whole entry, the tested form may be a part): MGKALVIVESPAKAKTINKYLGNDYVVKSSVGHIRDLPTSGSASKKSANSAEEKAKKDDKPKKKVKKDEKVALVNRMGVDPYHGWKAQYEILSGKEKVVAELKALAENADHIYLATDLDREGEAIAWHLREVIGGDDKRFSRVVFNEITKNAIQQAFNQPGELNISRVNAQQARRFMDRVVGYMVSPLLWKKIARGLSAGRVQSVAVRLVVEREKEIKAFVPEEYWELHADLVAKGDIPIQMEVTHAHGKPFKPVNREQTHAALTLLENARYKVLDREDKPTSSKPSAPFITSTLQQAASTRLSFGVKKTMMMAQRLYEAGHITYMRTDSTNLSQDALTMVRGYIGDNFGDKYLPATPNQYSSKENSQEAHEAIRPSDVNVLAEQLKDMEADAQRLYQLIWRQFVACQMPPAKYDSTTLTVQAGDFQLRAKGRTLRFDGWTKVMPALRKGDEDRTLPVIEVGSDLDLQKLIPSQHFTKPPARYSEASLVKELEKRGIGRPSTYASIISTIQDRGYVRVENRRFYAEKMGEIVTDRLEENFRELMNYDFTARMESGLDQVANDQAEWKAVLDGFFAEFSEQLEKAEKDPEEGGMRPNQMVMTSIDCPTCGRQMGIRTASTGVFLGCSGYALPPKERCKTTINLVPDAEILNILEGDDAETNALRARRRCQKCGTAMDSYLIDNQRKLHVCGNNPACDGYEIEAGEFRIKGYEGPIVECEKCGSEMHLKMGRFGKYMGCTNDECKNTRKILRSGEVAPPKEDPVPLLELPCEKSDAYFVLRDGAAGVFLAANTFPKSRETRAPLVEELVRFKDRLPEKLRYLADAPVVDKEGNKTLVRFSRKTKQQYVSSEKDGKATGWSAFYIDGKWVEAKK
Disintegrin and metalloproteinase domain-containing protein 17, sequence (P78536 whole entry, the tested form may be a part): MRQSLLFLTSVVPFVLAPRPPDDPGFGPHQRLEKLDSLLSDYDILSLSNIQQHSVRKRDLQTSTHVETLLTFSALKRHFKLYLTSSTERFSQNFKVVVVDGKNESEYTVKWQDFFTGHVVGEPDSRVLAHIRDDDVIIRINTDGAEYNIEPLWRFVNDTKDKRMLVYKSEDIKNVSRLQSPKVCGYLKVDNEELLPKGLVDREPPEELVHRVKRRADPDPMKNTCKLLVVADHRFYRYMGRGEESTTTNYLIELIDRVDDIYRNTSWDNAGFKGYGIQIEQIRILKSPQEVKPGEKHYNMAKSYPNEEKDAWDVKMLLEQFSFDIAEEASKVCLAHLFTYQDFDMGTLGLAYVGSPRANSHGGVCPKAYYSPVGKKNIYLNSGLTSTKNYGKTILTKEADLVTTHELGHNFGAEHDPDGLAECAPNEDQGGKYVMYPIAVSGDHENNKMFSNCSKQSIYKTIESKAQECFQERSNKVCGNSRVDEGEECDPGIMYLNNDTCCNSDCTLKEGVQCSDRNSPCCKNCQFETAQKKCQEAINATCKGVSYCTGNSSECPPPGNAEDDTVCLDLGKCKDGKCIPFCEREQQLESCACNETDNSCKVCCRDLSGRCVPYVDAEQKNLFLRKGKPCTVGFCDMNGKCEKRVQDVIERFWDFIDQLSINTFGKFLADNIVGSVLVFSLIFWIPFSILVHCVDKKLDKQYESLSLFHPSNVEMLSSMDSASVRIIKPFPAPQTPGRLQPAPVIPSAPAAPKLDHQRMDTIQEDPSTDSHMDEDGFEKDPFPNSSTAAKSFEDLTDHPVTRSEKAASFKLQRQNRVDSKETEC

For `Cc1cc(C)c2c(=O)n3c(nc2c1)C(Cc1ccc(O)cc1)NC(=O)c1cc2ccccc2cc1-3` (stereo unspecified), the AC50 (DNA topoisomerase) was 9.07 µM (active), the IC50 [1] was > 69.5 µM (inactive) and the IC50 [2] was > 69.5 µM (inactive).

In the case of `CCCCc1ccc2nc(NC(=O)c3nccs3)sc2c1`, the IC50 [3] is reported as 4.4 µM (active), the IC50 [4] is reported as 6.32 µM (active) and the IC50 (Caspase-3 [5]) is reported as 4.83 µM (active). For the same compound, the IC50 (Caspase-3 [6]) was 5.4 µM (active), the IC50 [7] was 3.3 µM (active) and the IC50 [8] was 4.9 µM (active). For the same compound, the IC50 [9] was 7.43 µM (active) and the IC50 [10] was 5.4 µM (active).

With `O=c1c2ccccc2nc(/C=C/c2ccccn2)n1-c1ccccc1` the IC50 (Hexokinase HKDC1) was > 80 µM (inactive) and the IC50 (Hexokinase-1) was > 80 µM (inactive).

In the case of `COc1cccc(NC(=O)CCc2nc(-c3ccc(C(C)(C)C)cc3)no2)c1`, the IC50 (Jurkat) is reported as 0.242 µM (active), the IC50 (HEK293 [11]) is reported as > 80 µM (inactive) and the IC50 (HEK293 [12]) is reported as 0.24 µM (active).
